Like-named read-outs stand apart in the source and are kept apart here.
Key:
[1] = target: T1, EGFR Exon19Del (Homo sapiens, UniProt P00533, DEL746-750); assay: Inhibition of EGFR Exon19Del biochemical enzymatic activity (HTRF); conditions: read-out: IC50 @Del19
T1 construct: purchased Carna Bio
Summary of the method: (§1)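 Following 1 h at room temperature with titrated compound, 1 mM ATP and 1 μM biotin-TK peptide (Mg2+/Mn2+, CHAPS, DTT, 0.5% DMSO buffer), EDTA-containing detection reagent terminated each enzyme reaction. Time-resolved fluorescence (ex 320, em 665/615 nm) ratio tracked activity. IC50 values came from four-parameter fits.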

[2] = target: T2, EGFR L858R (Homo sapiens, UniProt P00533, L858R); assay: Inhibition of EGFR L858R biochemical enzymatic activity (HTRF); conditions: 1 mM ATP
T2 construct: purchased Carna Bio
Summary of the method: as §1

[3] = target: T3, EGFR Exon19Del/T790M (Homo sapiens, UniProt P00533, DEL746-750/T790M); assay: Inhibition of EGFR Exon19Del/T790M biochemical enzymatic activity (HTRF); conditions: 1 mM ATP
T3 construct: purchased Carna Bio
T3 sequence (P00533 with tags, fused parts or gaps DEL746-750/T790M limits assumed): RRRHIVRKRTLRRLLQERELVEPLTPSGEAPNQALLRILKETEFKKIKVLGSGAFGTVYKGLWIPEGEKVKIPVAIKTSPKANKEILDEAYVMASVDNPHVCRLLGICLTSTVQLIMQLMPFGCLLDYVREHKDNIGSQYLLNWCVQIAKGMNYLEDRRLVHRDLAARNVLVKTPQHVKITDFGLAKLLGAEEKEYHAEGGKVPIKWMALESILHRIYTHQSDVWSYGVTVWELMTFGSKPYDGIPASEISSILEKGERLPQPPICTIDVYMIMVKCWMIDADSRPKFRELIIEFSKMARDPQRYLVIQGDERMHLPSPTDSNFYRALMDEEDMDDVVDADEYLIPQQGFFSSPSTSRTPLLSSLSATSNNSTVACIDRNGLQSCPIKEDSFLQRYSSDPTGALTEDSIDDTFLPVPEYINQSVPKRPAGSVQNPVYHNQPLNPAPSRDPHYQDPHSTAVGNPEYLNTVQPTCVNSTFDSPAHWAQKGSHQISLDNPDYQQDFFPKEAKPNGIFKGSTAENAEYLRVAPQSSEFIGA
Summary of the method: as §1

[4] = target: T4, EGFR[T790M/C797S/d746-750] (Homo sapiens, UniProt P00533, C797S/DEL746-750/T790M); assay: Inhibition of EGFR[T790M/C797S/d746-750] biochemical enzymatic activity (HTRF)
T4 construct: purchased Carna Bio
T4 sequence (P00533 with tags, fused parts or gaps DEL746-750/T790M/C797S limits assumed): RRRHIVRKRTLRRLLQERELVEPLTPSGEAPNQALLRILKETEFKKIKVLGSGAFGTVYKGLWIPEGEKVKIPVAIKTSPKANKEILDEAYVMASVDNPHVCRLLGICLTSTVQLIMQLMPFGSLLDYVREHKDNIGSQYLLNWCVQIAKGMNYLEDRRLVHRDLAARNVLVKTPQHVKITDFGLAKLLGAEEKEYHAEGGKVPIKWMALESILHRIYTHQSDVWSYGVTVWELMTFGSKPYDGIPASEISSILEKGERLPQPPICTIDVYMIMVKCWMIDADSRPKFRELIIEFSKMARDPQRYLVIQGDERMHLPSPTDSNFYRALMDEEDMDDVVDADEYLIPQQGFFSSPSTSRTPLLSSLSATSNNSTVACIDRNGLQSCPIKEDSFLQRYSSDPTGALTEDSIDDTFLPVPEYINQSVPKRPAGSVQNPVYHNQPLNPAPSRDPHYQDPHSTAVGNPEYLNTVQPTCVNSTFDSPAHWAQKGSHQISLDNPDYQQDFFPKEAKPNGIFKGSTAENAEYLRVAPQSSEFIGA
Summary of the method: as §1

[5] = target: T5, EGFR (d746-750 C797S) (Homo sapiens, UniProt P00533, C797S/DEL746-750); assay: Inhibition of EGFR (d746-750 C797S) biochemical enzymatic activity (HTRF); conditions: 1 mM ATP
T5 construct: purchased signalchem
T5 sequence (P00533 with tags, fused parts or gaps DEL746-750/C797S limits assumed): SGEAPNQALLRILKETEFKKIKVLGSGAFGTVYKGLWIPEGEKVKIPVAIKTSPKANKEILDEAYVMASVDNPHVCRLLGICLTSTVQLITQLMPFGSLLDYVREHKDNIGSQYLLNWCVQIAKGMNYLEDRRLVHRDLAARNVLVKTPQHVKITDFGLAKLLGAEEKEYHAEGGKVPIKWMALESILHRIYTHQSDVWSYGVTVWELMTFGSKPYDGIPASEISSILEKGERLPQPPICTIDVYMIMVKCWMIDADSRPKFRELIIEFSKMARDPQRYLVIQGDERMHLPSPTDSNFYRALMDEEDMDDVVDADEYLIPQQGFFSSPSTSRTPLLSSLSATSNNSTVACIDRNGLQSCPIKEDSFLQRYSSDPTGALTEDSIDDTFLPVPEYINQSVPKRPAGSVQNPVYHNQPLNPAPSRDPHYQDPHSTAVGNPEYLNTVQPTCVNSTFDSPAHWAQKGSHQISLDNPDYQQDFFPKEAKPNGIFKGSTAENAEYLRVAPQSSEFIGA
Summary of the method: as §1

[6] = system: Ba/F3 cells expressing EGFR mutations; assay: Cell proliferation assay, Ba/F3 cells expressing EGFR mutations (CellTiter-Glo, 72 hours); format: cell-based
Summary of the method: (§2)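 Luminescent viable-cell counts were taken on a day 0 plate at dosing and again at endpoint. Proliferation was calculated as (sample − G0)/(DMSO − G0). Seeding was 5000 Ba/F3 or 500 PC-9 cells per well in RPMI1640, followed by overnight attachment and serial compound dilutions. The GI50 was fitted.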

[7] = target: T6, EGFR L858R/T790M (Homo sapiens, UniProt P00533, L858R/T790M); assay: Inhibition of EGFR L858R/T790M biochemical enzymatic activity (HTRF); conditions: 1 mM ATP
T6 construct: purchased Carna Bio
Summary of the method: as §1

[8] = target: T7, EGFR[T790M/C797S/L858R] (Homo sapiens, UniProt P00533, C797S/L858R/T790M); assay: Inhibition of EGFR[T790M/C797S/L858R] biochemical enzymatic activity (HTRF); conditions: 1 mM ATP
T7 construct: purchased Carna Bio
Summary of the method: as §1

[9] = system: A-431; assay: Cell proliferation assay, A-431 cells (GI50, Table 6); format: cell-based; conditions: Homo sapiens, A-431, A-431 cells
[10] = target: T8, EGFR wild type (Homo sapiens, UniProt P00533); assay: Inhibition of EGFR wild type biochemical enzymatic activity (HTRF); conditions: 1 mM ATP
T8 construct: purchased Carna Bio
T8 sequence (P00533 25-1210): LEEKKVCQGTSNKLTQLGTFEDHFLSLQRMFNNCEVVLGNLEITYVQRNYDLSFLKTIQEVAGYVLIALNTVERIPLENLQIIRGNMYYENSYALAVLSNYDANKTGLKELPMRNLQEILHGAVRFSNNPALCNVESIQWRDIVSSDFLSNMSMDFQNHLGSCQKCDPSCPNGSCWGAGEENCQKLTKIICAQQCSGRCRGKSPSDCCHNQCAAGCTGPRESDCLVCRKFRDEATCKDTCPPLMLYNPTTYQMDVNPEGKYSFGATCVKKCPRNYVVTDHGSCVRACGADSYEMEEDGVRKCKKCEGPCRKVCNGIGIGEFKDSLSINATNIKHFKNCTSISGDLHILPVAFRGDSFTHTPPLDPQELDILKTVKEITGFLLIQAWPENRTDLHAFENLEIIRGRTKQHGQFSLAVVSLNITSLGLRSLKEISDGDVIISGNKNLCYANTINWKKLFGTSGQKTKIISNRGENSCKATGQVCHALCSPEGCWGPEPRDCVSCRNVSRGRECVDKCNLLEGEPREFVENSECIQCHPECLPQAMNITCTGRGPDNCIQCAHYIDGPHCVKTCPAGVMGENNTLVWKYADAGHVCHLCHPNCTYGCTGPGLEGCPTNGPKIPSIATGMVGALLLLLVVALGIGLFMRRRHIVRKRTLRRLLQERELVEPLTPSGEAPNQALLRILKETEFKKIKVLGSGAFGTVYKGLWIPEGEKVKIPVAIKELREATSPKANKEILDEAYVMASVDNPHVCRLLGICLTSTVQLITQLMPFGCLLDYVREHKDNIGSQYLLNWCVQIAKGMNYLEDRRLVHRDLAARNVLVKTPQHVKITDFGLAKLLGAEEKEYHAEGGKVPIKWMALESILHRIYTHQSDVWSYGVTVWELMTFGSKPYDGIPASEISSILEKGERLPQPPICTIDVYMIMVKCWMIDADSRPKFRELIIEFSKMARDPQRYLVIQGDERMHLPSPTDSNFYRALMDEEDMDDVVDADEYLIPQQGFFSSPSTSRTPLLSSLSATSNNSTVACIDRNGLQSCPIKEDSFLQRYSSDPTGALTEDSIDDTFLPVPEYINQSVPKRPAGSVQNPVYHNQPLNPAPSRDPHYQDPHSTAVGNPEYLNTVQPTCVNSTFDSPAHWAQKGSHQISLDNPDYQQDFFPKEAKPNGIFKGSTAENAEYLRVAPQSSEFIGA
Summary of the method: as §1

[11] = target: T9, EGFR (C797S L858R) (Homo sapiens, UniProt P00533, C797S/L858R); assay: Inhibition of EGFR (C797S L858R) biochemical enzymatic activity (HTRF); conditions: 1 mM ATP
T9 construct: purchased signalchem
T9 sequence (P00533 25-1210 C797S/L858R): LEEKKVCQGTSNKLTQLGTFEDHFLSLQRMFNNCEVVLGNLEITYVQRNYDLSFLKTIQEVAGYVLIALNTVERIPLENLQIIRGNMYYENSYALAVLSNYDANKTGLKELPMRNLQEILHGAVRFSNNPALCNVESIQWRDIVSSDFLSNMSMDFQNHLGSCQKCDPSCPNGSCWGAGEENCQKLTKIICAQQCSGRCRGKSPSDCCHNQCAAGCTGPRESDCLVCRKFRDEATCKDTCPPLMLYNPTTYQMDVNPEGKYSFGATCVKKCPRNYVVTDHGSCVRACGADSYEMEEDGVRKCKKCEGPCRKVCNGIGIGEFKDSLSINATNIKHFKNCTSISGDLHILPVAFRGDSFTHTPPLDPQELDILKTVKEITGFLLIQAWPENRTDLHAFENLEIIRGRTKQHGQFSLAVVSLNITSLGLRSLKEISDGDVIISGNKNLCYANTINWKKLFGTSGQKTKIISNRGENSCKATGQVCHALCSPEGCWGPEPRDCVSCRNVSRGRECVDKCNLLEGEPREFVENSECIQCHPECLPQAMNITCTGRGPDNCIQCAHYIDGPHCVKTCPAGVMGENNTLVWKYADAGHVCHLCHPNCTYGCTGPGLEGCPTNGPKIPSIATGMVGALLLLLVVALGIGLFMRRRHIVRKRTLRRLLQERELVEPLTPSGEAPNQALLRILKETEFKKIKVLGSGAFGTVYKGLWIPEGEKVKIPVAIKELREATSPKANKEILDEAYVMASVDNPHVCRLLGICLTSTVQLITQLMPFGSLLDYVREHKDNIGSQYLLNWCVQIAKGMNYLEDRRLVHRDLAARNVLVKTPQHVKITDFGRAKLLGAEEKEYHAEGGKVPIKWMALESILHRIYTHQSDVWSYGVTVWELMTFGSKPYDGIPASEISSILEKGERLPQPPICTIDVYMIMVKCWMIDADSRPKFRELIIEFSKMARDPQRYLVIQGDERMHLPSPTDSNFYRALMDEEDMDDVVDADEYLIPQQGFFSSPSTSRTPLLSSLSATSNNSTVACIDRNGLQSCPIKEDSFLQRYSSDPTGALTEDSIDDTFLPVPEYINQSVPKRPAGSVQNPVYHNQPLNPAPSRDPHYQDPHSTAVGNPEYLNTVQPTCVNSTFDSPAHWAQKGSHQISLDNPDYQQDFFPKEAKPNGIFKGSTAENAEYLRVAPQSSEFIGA
Summary of the method: as §1

[12] = system: PC-9; assay: Cell proliferation assay, PC-9 cells (CellTiter-Glo, 72 hours); format: cell-based; conditions: PC9 cells, read-out: GI50 PC9
Summary of the method: as §2

[13] = EGFR Exon19Del, 1 mM ATP, 1 h at room temperature
[14] = 1 h at room temperature, read-out: IC50 @L858R
[15] = EGFR Exon19Del/T790M, 1 h at room temperature, read-out: IC50 @Del19-T790M
[16] = EGFR[T790M/C797S/d746-750], 1 mM ATP, 1 h at room temperature, read-out: IC50 @T790M - C797S - Del19
[17] = EGFR (d746-750 C797S), 1 h at room temperature, read-out: IC50 @Del19-C797S
[18] = EGFR L858R/T790M, 1 h at room temperature, read-out: IC50 @L858R-T790M
[19] = EGFR[T790M/C797S/L858R], 1 h at room temperature, read-out: IC50 @T790M- C797S - L858R
[20] = EGFR wild type, 1 h at room temperature, read-out: IC50 @WT
[21] = EGFR (C797S L858R), 1 h at room temperature, read-out: IC50 @L858-C797S
[22] = Mus musculus, BaF3, 72 h, BaF3 cells, EGFR DEL19 - C797S, read-out: GI50 DEL19 - C797S/BaF3
[23] = Mus musculus, BaF3, 72 h, BaF3 cells, EGFR DEL19 - T790-C797S, read-out: GI50 DEL19 - T790-C797S/BaF3
[24] = Mus musculus, BaF3, 72 h, BaF3 cells, EGFR L858R - C797S, read-out: GI50 L858R - C797S/BaF3
[25] = Mus musculus, BaF3, 72 h, BaF3 cells, EGFR L858R - T790-C797S, read-out: GI50 L858R - T790-C797S/BaF3
[26] = Mus musculus, BaF3, 72 h, BaF3 cells, EGFR L858R - T790M, read-out: GI50 L858R - T790M/BaF3
[27] = Mus musculus, BaF3, 72 h, BaF3 cells, EGFR L858R, read-out: GI50 L858R/BaF3
[28] = Mus musculus, BaF3, 72 h, EGFR DEL19 - T790M, read-out: GI50 DEL19 - T790M
[29] = EGFR Del19, 1 mM ATP, 1 h, room temperature
[30] = 1 h, room temperature, read-out: IC50 (nM) @L858R
[31] = EGFR Del19-T790M, 1 h, room temperature, read-out: IC50 (nM) @Del19-T790M
[32] = EGFR T790M-C797S-Del19, 1 mM ATP, 1 h, room temperature, read-out: IC50 (nM) @T790M - C797S - Del19
[33] = EGFR Del19-C797S, 1 h, room temperature, read-out: IC50 (nM) @Del19-C797S
[34] = EGFR L858R-T790M, 1 h, room temperature, read-out: IC50 (nM) @L858R-T790M
[35] = EGFR T790M-C797S-L858R, 1 h, room temperature, read-out: IC50 (nM) @T790M- C797S - L858R
[36] = EGFR WT, 1 h, room temperature, read-out: IC50 (nM) @WT
[37] = EGFR L858-C797S, 1 h, room temperature, read-out: IC50 (nM) @L858-C797S

T1 sequence (P00533 with tags, fused parts or gaps DEL746-750 limits assumed): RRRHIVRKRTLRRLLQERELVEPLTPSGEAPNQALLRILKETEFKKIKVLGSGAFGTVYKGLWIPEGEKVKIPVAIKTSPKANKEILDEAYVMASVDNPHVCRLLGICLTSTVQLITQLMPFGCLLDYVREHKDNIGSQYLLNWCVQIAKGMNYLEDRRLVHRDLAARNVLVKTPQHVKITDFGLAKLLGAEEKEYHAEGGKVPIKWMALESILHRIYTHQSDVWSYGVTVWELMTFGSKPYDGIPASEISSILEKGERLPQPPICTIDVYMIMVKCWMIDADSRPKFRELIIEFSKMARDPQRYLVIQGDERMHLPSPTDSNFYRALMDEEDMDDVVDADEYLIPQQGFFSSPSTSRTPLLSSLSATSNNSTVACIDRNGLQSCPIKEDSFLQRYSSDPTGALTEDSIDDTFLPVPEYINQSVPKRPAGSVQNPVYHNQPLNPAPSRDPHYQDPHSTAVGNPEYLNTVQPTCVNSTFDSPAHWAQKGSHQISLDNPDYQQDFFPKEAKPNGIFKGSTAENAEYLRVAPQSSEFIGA

Row | IC50 [1, 13] [nM] | IC50 [2, 14] [nM] | IC50 [3, 15] [nM] | IC50 [4, 16] [nM] | IC50 [5, 17] [nM] | IC50 [7, 18] [nM] | IC50 [8, 19] [nM] | GI50 [9] [nM] | IC50 [10, 20] [nM] | IC50 [11, 21] [nM] | GI50 [6, 22] [nM] | GI50 [6, 23] [nM] | GI50 [6, 24] [nM] | GI50 [6, 25] [nM] | GI50 [6, 26] [nM] | GI50 [6, 27] [nM] | GI50 [6, 28] [nM] | GI50 ([12]; Homo sapiens, PC-9, 72 h) [nM] | IC50 [1, 29] [nM] | IC50 [2, 30] [nM] | SMILES | other results
1 | 5.2 | 53 | 3.9 | 1.9 | 1.9 | 2.6 | 1.7 | 2570 | 971 | 9.5 | – | – | – | – | – | – | – | – | – | – | Cc1cc2cc(n1)-c1cnn(C)c1OCCN1CC3CCC(C3)(C1)n1c(nc3ccc(N4CC5CC4CN5C)cc31)NC2=O (single isomer, unassigned) [Example B53B] | GI50 ([6]; BaF3 cells, EGFR DEL19 - C797S, read-out: GI50 DEL19 - C797S/BaF3): 2 nM; GI50 ([6]; BaF3 cells, EGFR DEL19 - T790-C797S, read-out: GI50 DEL19 - T790-C797S/BaF3): 2 nM; GI50 ([6]; BaF3 cells, EGFR L858R - C797S, read-out: GI50 L858R - C797S/BaF3): 4 nM; GI50 ([6]; BaF3 cells, EGFR L858R - T790-C797S, read-out: GI50 L858R - T790-C797S/BaF3): 2 nM; GI50 ([6]; BaF3 cells, EGFR L858R - T790M, read-out: GI50 L858R - T790M/BaF3): 2 nM; GI50 ([6]; BaF3 cells, EGFR L858R, read-out: GI50 L858R/BaF3): 13 nM; GI50 ([6]; EGFR DEL19 - T790M, read-out: GI50 DEL19 - T790M): 6 nM; GI50 [12]: 10 nM
2 | 30 | 378 | 9 | 6 | 14 | 13 | 5 | 6630 | > 5000 | 185 | 10 | 3 | 108 | 7 | 20 | 62 | 3 | 121 | – | – | Cc1cc2cc(n1)-c1cnn(C)c1OCCN1CC3CCC(CC3)(C1)n1c(nc3ccc(N4CC5CCN(C)C5C4)cc31)NC2=O (stereo not drawn) [Example B35] | –
3 | – | – | – | – | – | – | – | 3440 | – | – | 56 | 336 | 194 | 162 | 720 | 419 | 157 | 256 | 464 | > 5000 | Cn1ncc2c1OCCN1CC3CCC(CC3)(C1)n1c(nc3cc(F)ccc31)NC(=O)c1cc-2c(=O)n(C)c1 [Example A116, 6-fluoro-15,21-dimethyl-23-oxa-2,9,11,15,20,21,26-heptaazaheptacyclo[26.2.2.1^{1,26}.1^{13,17}.0^{2,10}.0^{3,8}.0^{18,22}]tetratriaconta-3,5,7,9,13,17(34),18(22),19-octaene-12,16-dione] | IC50 [3, 31]: 88 nM; IC50 [4, 32]: 168 nM; IC50 [5, 33]: 474 nM; IC50 [7, 34]: > 5000 nM; IC50 [8, 35]: > 5000 nM; IC50 [10, 36]: > 5000 nM; IC50 [11, 37]: 3700 nM
4 | – | – | – | – | – | – | – | 2820 | – | – | 62 | 31 | 66 | 9.1 | 7 | 144 | 41 | 115 | 108 | 440 | Cc1cc2cc(n1)-c1cnn(C)c1OCCN(CC(F)F)CCn1c(nc3ccccc31)NC2=O [Example B5] | IC50 [3, 31]: 5.1 nM; IC50 [4, 32]: 4.1 nM; IC50 [5, 33]: 48 nM; IC50 [7, 34]: 13 nM; IC50 [8, 35]: 7.1 nM; IC50 [10, 36]: > 5000 nM; IC50 [11, 37]: 195 nM
